Measurements as given in US5484584A, “Therapeutic and diagnostic use of modified polymeric microcapsules” (priority 1992, dated 1996).

Assay: In vivo tissue distribution of 131I-ethyliopanoate loaded microcapsules after i.v. injection
Design: species or system rat
Details: rats, 5 uCi radiotracer
Protocol: PBLG and estrone-PBLG microcapsules loaded with [^131 I]ethyliopanoate (5.7 μCi in […] of water) were administered to rats in the tail vein. Rats (N=3/group) were sacrificed at 1, 3, 6, and 24 hours after injection. The percentage of injected dose in an organ or tissue was determined by a gamma counter.
Estrone conjugated poly-benzyl-L-glutamate microcapsules loaded with ^131 I-labeled ethyliopanoate were injected into rats (three per group) via the tail-vein (5.7 μCi in 0.3 ml water). Control groups were given only the ^131 I-labeled iopanoic acid. Rats were sacrificed at 1, 3, 6 and 24 hours post injection. The percent of injected dose per organ or per tissue weight was determined by a COBRA Auto-gamma counter (Packard, Meridien, Conn.).

CCOC(=O)C(CC)Cc1c(I)cc(I)c(N)c1I (stereo not drawn) [IOPA, ethyliopanoate]
UTERUS TO MUSCLE RATIO (1 hr): 2.92 ± 0.464 | UTERUS TO MUSCLE RATIO (3 hrs): 3.60 ± 0.346 | UTERUS TO MUSCLE RATIO (6 hrs): 3.47 ± 0.122
